Tests used:
[1] = test system: murine keratinocyte cell line PE; assay: Growth inhibition of PE cells (MTT assay); assay type: cell-based; conditions: murine keratinocytes, FIGS. 1-9
Experimental: To determine the inhibitory effect of the trioxane dimers of the present invention on cell proliferation, screening assays were performed on a murine keratinocyte cell line PE. […] PE cell culture medium consisted of Eagle's minimal essential medium without calcium chloride (Whittaker Bioproducts, Walkersville, Ma.) supplemented with 8% chelexed fetal calf serum and 1% antibiotic-antimycotic (Gibco BRL) and the addition of CaCl2 to 0.05 mM Ca^++. […] (St. Louis, Mo.), and TPA was supplied by L. C. Services (Woburn, Ma.). L-[^14C]ornithine ([…]) was from Amersham/Searle Corp. (Arlington Heights, Ill.). Chemical solvents used in all assays of biological activity were of the highest grade commercially available. Growth Inhibition. […] A mitochondrial dehydrogenase reduces MTT to a blue formazan product with an absorbance maximum of 505 nm in DMSO; the number of viable cells can thus be determined spectrophotometrically. PE cells were seeded at a density of 5,000 cells/well in 50 μL of medium into 96-well microtiter plates. […] The plates were fed once at 48 h, with the readdition of the vitamin D3 analogs at this time. […] After 4 h, the MTT was removed and DMSO added to dissolve the blue formazan dye. Using a microtiter plate reader, the […] was then determined and cell number calculated from blank-subtracted absorbance values.

P. berghei = conditions: Klayman 1985; cited from earlier work
[2] = test system: murine keratinocyte cell line PE; assay: Viability of PE cells by trypan blue exclusion; assay type: cell-based; conditions: 96 h

| Molecule | antiproliferative activity [1] | other results |
| --- | --- | --- |
| 4β-Hydroxymethyl Trioxane Terephthalate Dimer [Compound 24] | significant antiproliferative activity | – |
| COC1OC2(C)CCC3CCCC(CCOC(=O)CCCC(=O)OCCC4CCCC5CCC6(C)OOC45C(OC)O6)C31OO2 (stereo not drawn) [Compound 15, Trioxane Bis-ester Dimer] | the most active | – |
| COC1OC2(C)CCC3CCCC(CCOP(=O)(OCCC4CCCC5CCC6(C)OOC45C(OC)O6)Oc4ccccc4)C31OO2 (stereo not drawn) [Compound 20, Bis-trioxane phosphate ester] | Neither phosphate dimers 20, and 21 nor phosphonate dimer 22 has significant antiproliferative activity | – |
| COC1OC2(C)CCC3CCCC(CCOP(=O)(OC)OCCC4CCCC5CCC6(C)OOC45C(OC)O6)C31OO2 (stereo not drawn) [Compound 21, Bis-trioxane phosphate ester] | Neither phosphate dimers 20, and 21 nor phosphonate dimer 22 has significant antiproliferative activity | – |
| CC1=CO[C@@H]2O[C@]3(C)CC[C@H]4[C@H](C)CC[C@@H]1[C@@]24OO3 [III] | – | activity against P. berghei-infected mice (P. berghei): inactive |
| C=C1/C(=C\C=C2/CCC[C@]3(C)[C@@H]([C@H](C)CCCC(C)(C)O)CC[C@@H]23)C[C@@H](O)C[C@@H]1O [calcitriol, 1α, 25-dihydroxyvitamin D3] | – | viability of the cells [2]: identical to control cells |

From USRE38117E1, “Trioxane dimer compound having antiproliferative and antitumor activities” (Hauser, Inc., priority 1995, dated 2003)
